Assay results reported in US20250049938A1, “ANTIBODY-DRUG CONJUGATE AND USE THEREOF” (priority 2021, published 2025).
Starred links: 1 amine or outer side, 2 acyl side, 3 side chain; linkers in the order of their positions; H or OH if unused. Non-standard residues stand in square brackets, D forms with d. Residues, ends and D or L forms follow the SMILES beside them. *: point of attachment. Exatecan = CC[C@@]1(O)C(=O)OCc2c1cc1n(c2=O)Cc2c-1nc1cc(F)c(C)c3c1c2[C@@H](N*)CC3; Hexanoyl(6-maleimido) = O=C1C=CC(=O)N1CCCCCC(=O)*; NHCH2OCH2CO = O=C(COCN[*:1])[*:2]

These compounds were tested on human colon cancer SW620 cells (assay: In vitro killing of human colon cancer SW620 cells (CellTiter-Glo)). Conditions: FIG. 2B; 2-fold dilutions from 400 nM, 9 concentrations; culturing 4 days and 6 days.
Assay type: cell-based
Experimental: Human colon cancer SW620 cells in the logarithmic growth phase were digested with pancreatin, and subsequently resuspended in a corresponding culture medium, with the density adjusted to be 2×10^4 cells/mL. The cells were seeded into a 96-well microplate at 100 μL/well, allowing for a density of 2×10^3 cells/well, and 200 μL of the culture medium was added to each of the rest wells. After culturing for 48 h at 37° C., 5% CO2, the supernatant was pipetted from the cell culture plate. The linker-drugs (04-Dxd, 07-Dxd, 08-Dxd, and 09-Dxd), HER3 ADCs (HER3-ADC04, HER3-ADC07, HER3-ADC08, and HER3-ADC09), and a monoclonal antibody control were diluted in a 2-fold gradient with the culture medium, starting from the initial concentration of 400 nM, to obtain a total of 9 concentration gradients. The diluted samples were added at 100 μL/well. After further culturing for 4 days and 6 days, color development was carried out. The cell plate was taken out and equilibrated for 15-20 min at room temperature, and subsequently 100 μL of CellTiter-Glo® Luminescent Cell Viability assay buffer (purchased from Promega) was added. The plate was shaken for 2 min on a shaker at 200 rpm, kept for 18 min in the dark, and read using an M5 microplate reader.
followed by plotting through four-parameter fitting, with the logarithm of the concentration as the abscissa and the killing rate as the ordinate.

Row | SMILES | in vitro killing effect of linker-Dxd drugs on SW620 cells
1 | CC[C@@]1(O)C(=O)OCc2c1cc1n(c2=O)Cc2c-1nc1cc(F)c(C)c3c1c2[C@@H](NC(=O)COCNC(=O)CNC(=O)[C@H](Cc1ccccc1)NC(=O)CNC(=O)CNC(=O)CCCCCN1C(=O)C=CC1=O)CC3 [04-Dxd, reference compound] ({Hexanoyl(6-maleimido)}-GGFG[NHCH2OCH2CO]-Exatecan) | killing effect
2 | CC[C@@]1(O)C(=O)OCc2c1cc1n(c2=O)Cc2c-1nc1cc(F)c(C)c3c1c2[C@@H](NC(=O)COCNC(=O)CNC(=O)[C@H](Cc1ccccc1)NC(=O)CNC(=O)[C@H](C)NC(=O)[C@@H](NC(=O)CCCCCN1C(=O)C=CC1=O)C(C)C)CC3 [07-Dxd] ({Hexanoyl(6-maleimido)}-VAGFG[NHCH2OCH2CO]-Exatecan) | significantly better killing effect than 04-Dxd
3 | CC[C@@]1(O)C(=O)OCc2c1cc1n(c2=O)Cc2c-1nc1cc(F)c(C)c3c1c2[C@@H](NC(=O)COCNC(=O)CNC(=O)[C@H](Cc1ccccc1)NC(=O)CNC(=O)[C@H](CO)NC(=O)[C@H](C)NC(=O)[C@@H](NC(=O)CCCCCN1C(=O)C=CC1=O)C(C)C)CC3 [08-Dxd] ({Hexanoyl(6-maleimido)}-VASGFG[NHCH2OCH2CO]-Exatecan) | significantly better killing effect than 04-Dxd
4 | CC[C@@]1(O)C(=O)OCc2c1cc1n(c2=O)Cc2c-1nc1cc(F)c(C)c3c1c2[C@@H](NC(=O)COCNC(=O)CNC(=O)[C@H](Cc1ccccc1)NC(=O)CNC(=O)[C@H](CO)NC(=O)[C@H](CO)NC(=O)[C@H](C)NC(=O)[C@@H](NC(=O)CCCCCN1C(=O)C=CC1=O)C(C)C)CC3 [09-Dxd] ({Hexanoyl(6-maleimido)}-VASSGFG[NHCH2OCH2CO]-Exatecan) | significantly better killing effect than 04-Dxd
